# In US20230085307A1, “PYRIDAZINONE COMPOUND AND HERBICIDE” (NISSAN CHEMICAL CORPORATION, priority 2019, published 2023):
# What was measured:
# Italian ryegrass [1] = experiment: Test Example 5: herbicidal effect by foliage application, plastic box (Table 20, symbol K); format: in vivo, Italian ryegrass (Lolium multiflorum); settings: amount of applied herbicide 320 g/ha; foliage application after 14-day growth; evaluated three weeks after application
# Outline: (§1)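 Plants were sown into sterilized diluvial soil under about 1.5 cm cover and kept in a greenhouse at 25° C. to 30° C. Fourteen days on, foliage received an even spray of the diluted emulsion. Herbicidal or crop effect was judged three weeks afterwards.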
# velvetleaf [2] = experiment: Test Example 4: herbicidal effect by soil treatment (Table 19, symbol M); format: in vivo, velvetleaf (Abutilon theophrasti); settings: amount of applied herbicide 320 g/ha
# Outline: (§2)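 Pre-emergence style soil spray: seeds under ~1.5 cm sterilized diluvial soil received a uniform coat of emulsion diluted to the predetermined herbicide amount. Greenhouse 25–30° C; readout at week three on previously defined criteria.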
# green foxtail [3] = experiment: Test Example 4: herbicidal effect by soil treatment (Table 19, symbol G); format: in vivo, green foxtail (Setaria viridis); settings: amount of applied herbicide 320 g/ha
# Outline: as §2
# windgrass [4] = experiment: Test Example 4: herbicidal effect by soil treatment (Table 19, symbol L); format: in vivo, windgrass (Apera spica-venti); settings: amount of applied herbicide 320 g/ha
# Outline: as §2
# wild oat [5] = experiment: Test Example 4: herbicidal effect by soil treatment (Table 19, symbol I); format: in vivo, wild oat (Avena fatua); settings: amount of applied herbicide 320 g/ha
# Outline: as §2
# velvetleaf [6] = experiment: Test Example 5: herbicidal effect by foliage application, plastic box (Table 20, symbol M); format: in vivo, velvetleaf (Abutilon theophrasti); settings: amount of applied herbicide 320 g/ha; foliage application after 14-day growth; evaluated three weeks after application
# Outline: as §1
# windgrass [7] = experiment: Test Example 5: herbicidal effect by foliage application, plastic box (Table 20, symbol L); format: in vivo, windgrass (Apera spica-venti); settings: amount of applied herbicide 320 g/ha; foliage application after 14-day growth; evaluated three weeks after application
# Outline: as §1
# green foxtail [8] = experiment: Test Example 5: herbicidal effect by foliage application, plastic box (Table 20, symbol G); format: in vivo, green foxtail (Setaria viridis); settings: amount of applied herbicide 320 g/ha; foliage application after 14-day growth; evaluated three weeks after application
# Outline: as §1
# chickweed [9] = experiment: Test Example 5: herbicidal effect by foliage application, plastic box (Table 20, symbol P); format: in vivo, common chickweed (Stellaria media); settings: amount of applied herbicide 320 g/ha; foliage application after 14-day growth; evaluated three weeks after application
# Outline: as §1
# barnyard grass [10] = experiment: Test Example 5: herbicidal effect by foliage application, plastic box (Table 20, symbol H); format: in vivo, barnyard grass (Echinochloa crus-galli); settings: amount of applied herbicide 320 g/ha; foliage application after 14-day growth; evaluated three weeks after application
# Outline: as §1
# blackgrass [11] = experiment: Test Example 4: herbicidal effect by soil treatment (Table 19, symbol J); format: in vivo, blackgrass (Alopecurus myosuroides); settings: amount of applied herbicide 320 g/ha
# Outline: as §2
# Chinese sprangletop = experiment: Test Example 3: herbicidal effect by foliage application, Wagner pot (Table 18, symbol D); format: in vivo, chinese sprangletop (Leptochloa chinensis); settings: 320 g/ha
# Outline: (§3)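 Plants were sown in alluvial soil held under 0.1–0.5 cm standing water and grown 14 days in a greenhouse at 25–30 °C. An emulsifiable formulation, water-diluted to the set dose, was then sprayed onto the foliage, and effects were scored three weeks later using previously defined criteria.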
# Italian ryegrass [12] = experiment: Test Example 4: herbicidal effect by soil treatment (Table 19, symbol K); format: in vivo, Italian ryegrass (Lolium multiflorum); settings: amount of applied herbicide 320 g/ha
# Outline: as §2
# chickweed [13] = experiment: Test Example 4: herbicidal effect by soil treatment (Table 19, symbol P); format: in vivo, common chickweed (Stellaria media); settings: amount of applied herbicide 320 g/ha
# Outline: as §2
# rice flat sedge = experiment: Test Example 3: herbicidal effect by foliage application, Wagner pot (Table 18, symbol E); format: in vivo, rice flat sedge (Cyperus iria); settings: 320 g/ha
# Outline: as §3
# southern crabgrass [14] = experiment: Test Example 5: herbicidal effect by foliage application, plastic box (Table 20, symbol F); format: in vivo, southern crabgrass (Digitaria ciliaris); settings: amount of applied herbicide 320 g/ha; foliage application after 14-day growth; evaluated three weeks after application
# Outline: as §1
# persian speedwell [15] = experiment: Test Example 5: herbicidal effect by foliage application, plastic box (Table 20, symbol R); format: in vivo, Persian speedwell (Veronica persica); settings: amount of applied herbicide 320 g/ha; foliage application after 14-day growth; evaluated three weeks after application
# Outline: as §1
# redroot pigweed [16] = experiment: Test Example 4: herbicidal effect by soil treatment (Table 19, symbol N); format: in vivo, redroot pigweed (Amaranthus retroflexus); settings: amount of applied herbicide 320 g/ha
# Outline: as §2
# southern crabgrass [17] = experiment: Test Example 4: herbicidal effect by soil treatment (Table 19, symbol F); format: in vivo, southern crabgrass (Digitaria ciliaris); settings: amount of applied herbicide 320 g/ha
# Outline: as §2
# barnyard grass [18] = experiment: Test Example 4: herbicidal effect by soil treatment (Table 19, symbol H); format: in vivo, barnyard grass (Echinochloa crus-galli); settings: amount of applied herbicide 320 g/ha
# Outline: as §2
# lambsquarters [19] = experiment: Test Example 5: herbicidal effect by foliage application, plastic box (Table 20, symbol O); format: in vivo, lambsquarters (Chenopodium album); settings: amount of applied herbicide 320 g/ha; foliage application after 14-day growth; evaluated three weeks after application
# Outline: as §1
# barnyard grass [20] = experiment: Test Example 3: herbicidal effect by foliage application, Wagner pot (Table 18, symbol H); format: in vivo, barnyard grass (Echinochloa crus-galli); settings: 320 g/ha
# Outline: as §3
# wild oat [21] = experiment: Test Example 5: herbicidal effect by foliage application, plastic box (Table 20, symbol I); format: in vivo, wild oat (Avena fatua); settings: amount of applied herbicide 320 g/ha; foliage application after 14-day growth; evaluated three weeks after application
# Outline: as §1
# blackgrass [22] = experiment: Test Example 5: herbicidal effect by foliage application, plastic box (Table 20, symbol J); format: in vivo, blackgrass (Alopecurus myosuroides); settings: amount of applied herbicide 320 g/ha; foliage application after 14-day growth; evaluated three weeks after application
# Outline: as §1
# persian speedwell [23] = experiment: Test Example 4: herbicidal effect by soil treatment (Table 19, symbol R); format: in vivo, Persian speedwell (Veronica persica); settings: amount of applied herbicide 320 g/ha
# Outline: as §2
# lambsquarters [24] = experiment: Test Example 4: herbicidal effect by soil treatment (Table 19, symbol O); format: in vivo, lambsquarters (Chenopodium album); settings: amount of applied herbicide 320 g/ha
# Outline: as §2
# redroot pigweed [25] = experiment: Test Example 5: herbicidal effect by foliage application, plastic box (Table 20, symbol N); format: in vivo, redroot pigweed (Amaranthus retroflexus); settings: amount of applied herbicide 320 g/ha; foliage application after 14-day growth; evaluated three weeks after application
# Outline: as §1
compound,measurement,setting,value
CC(=O)COc1ccc(-c2sc3cc(F)c(F)cc3c2-c2c(O)c(C)nn(C)c2=O)cc1 [5-023],"Herbicidal effect by foliage application, K: Italian ryegrass",Italian ryegrass [1],0 (Herbicidal rate of 5% or less (almost no effect))
same,"M: velvetleaf, herbicidal effect grade",velvetleaf [2],0 (Herbicidal rate of 5% or less (almost no effect))
same,"G: green foxtail, herbicidal effect grade",green foxtail [3],0 (Herbicidal rate of 5% or less (almost no effect))
same,"L: windgrass, herbicidal effect grade",windgrass [4],0 (Herbicidal rate of 5% or less (almost no effect))
same,"I: wild oat, herbicidal effect grade",wild oat [5],0 (Herbicidal rate of 5% or less (almost no effect))
same,"Herbicidal effect by foliage application, M: velvetleaf",velvetleaf [6],5 (Herbicidal rate of 90% or more (almost completely withered))
same,"Herbicidal effect by foliage application, L: windgrass",windgrass [7],0 (Herbicidal rate of 5% or less (almost no effect))
same,"Herbicidal effect by foliage application, G: green foxtail",green foxtail [8],4 (Herbicidal rate of 70% or more and less than 90%)
same,"Herbicidal effect by foliage application, P: chickweed",chickweed [9],5 (Herbicidal rate of 90% or more (almost completely withered))
same,"Herbicidal effect by foliage application, H: barnyard grass",barnyard grass [10],1 (Herbicidal rate of 5% or more and less than 20%)
same,"J: blackgrass, herbicidal effect grade",blackgrass [11],0 (Herbicidal rate of 5% or less (almost no effect))
same,herbicidal effect on Chinese sprangletop (D),Chinese sprangletop,3 (Herbicidal rate of 40% or more and less than 70%)
same,"K: Italian ryegrass, herbicidal effect grade",Italian ryegrass [12],0 (Herbicidal rate of 5% or less (almost no effect))
same,"P: chickweed, herbicidal effect grade",chickweed [13],3 (Herbicidal rate of 40% or more and less than 70%)
same,herbicidal effect on rice flat sedge (E),rice flat sedge,0 (Herbicidal rate of 5% or less (almost no effect))
same,"Herbicidal effect by foliage application, F: southern crabgrass",southern crabgrass [14],0 (Herbicidal rate of 5% or less (almost no effect))
same,"Herbicidal effect by foliage application, R: persian speedwell",persian speedwell [15],3 (Herbicidal rate of 40% or more and less than 70%)
same,"N: redroot pigweed, herbicidal effect grade",redroot pigweed [16],3 (Herbicidal rate of 40% or more and less than 70%)
same,"F: southern crabgrass, herbicidal effect grade",southern crabgrass [17],0 (Herbicidal rate of 5% or less (almost no effect))
same,"H: barnyard grass, herbicidal effect grade",barnyard grass [18],0 (Herbicidal rate of 5% or less (almost no effect))
same,"Herbicidal effect by foliage application, O: lambsquarters",lambsquarters [19],3 (Herbicidal rate of 40% or more and less than 70%)
same,herbicidal effect on barnyard grass (H),barnyard grass [20],4 (Herbicidal rate of 70% or more and less than 90%)
same,"Herbicidal effect by foliage application, I: wild oat",wild oat [21],0 (Herbicidal rate of 5% or less (almost no effect))
same,"Herbicidal effect by foliage application, J: blackgrass",blackgrass [22],0 (Herbicidal rate of 5% or less (almost no effect))
same,"R: persian speedwell, herbicidal effect grade",persian speedwell [23],0 (Herbicidal rate of 5% or less (almost no effect))
same,"O: lambsquarters, herbicidal effect grade",lambsquarters [24],2 (Herbicidal rate of 20% or more and less than 40%)
same,"Herbicidal effect by foliage application, N: redroot pigweed",redroot pigweed [25],5 (Herbicidal rate of 90% or more (almost completely withered))
